Converted amounts (≈) assume the structure as drawn.
Each compound was assayed on Helicobacter pylori (assay: Minimal inhibitory concentration (MIC) against Helicobacter pylori, urease read-out, 5 clinical strains). Conditions: 5 H. pylori clinical strains, 10% blood agar, 48 h at 37° C., microaerophilic, read-out: MIC.
Format: cell-based
Protocol: The anti-Helicobacter activity of the subject compounds was assessed by the following in-vitro test procedure.
The activity of test compounds against Helicobacter pylori was determined against a standard set of 5 H. priori strains obtained from clinical material. Minimal inhibitory concentrations (MICs) were determined by measuring the activity of H. pylori urease after treatment of growing cultures of the bacteria with the antimicrobial agents.
The test compounds were dissolved in DMSO at a concentration of 10^-3 M. A dilution to 10^-4 M in DMSO was also prepared. 10 μl volumes of these solutions were pipetted in the wells of Repli-Dishes (®Sterilin). Wells containing DMSO alone were included as controls in each Repli-Dish. Ampicillin ((+)-6-[(2-amino-2-phenylacetyl)amino]-3,3-dimethyl-7-oxo-4-thia-1-azabicyclo[3.2.0]heptane-2-carboxylic acid trihydrate) and metronidazole (2-methyl-5-nitro-1H-imidazol-1-ethanol) were included as reference compounds in each batch of tests. (These compounds were tested at final concentrations of 10^-5, 10^-6, 10^-7 and 10^-8 M). Test plates were stored at 4° C. until used. The five isolates of H. pylori were maintained by subculture on 10% blood agar every 2 or 3 days. The bacteria were grown at 37° C. under an atmosphere containing 5% oxygen, 10% CO2 and 85% nitrogen. Suspensions of Helicobacter pylori for inoculum were prepared in Brain-heart infusion broth and adjusted to an absorbance of 1.5±0.3 at […].
Freshly prepared 10% blood agar held at 45° C. was added in 1 ml volumes to the wells of the test plates, thus diluting the test compounds to 10^-5 and 10^-6 M. The medium was allowed to cool, then 10 μl volumes of bacterial suspension were pipetted on the agar surface. The plates were incubated for 48 h at 37° C. under the microaerophilic atmosphere described above. […] After the 48 h of incubation, 1 ml volumes of urease broth were gently added to each Repli-Dish well and the plates were incubated at 37° C. for 2 h. 100 μl samples of fluid from each well were then pipetted into the wells of 96-place microdilution plates. A purple colour was interpreted as growth, yellow-orange as no growth of H. pylori. By this means a clear end-point was obtained, from which the inhibitory effects could be determined.
Table 1 summarizes the MIC values determined by the above procedure for a subset of the subject compounds.

| MIC [µM] | SMILES |
| --- | --- |
| 0.1 (≈ 0.0534 µg/mL) | CC[C@H]([C@H](O)c1ccc(Cl)cc1)n1ccn(-c2ccc(N3CCN(c4ccc(OC)cc4)CC3)nc2)c1=O (relative stereo) [compound 38, (±)-(R*,R*)-1-[1-[(4-chlorophenyl)hydroxymethyl]propyl]-1,3-dihydro-3-[6-[4-(4-methoxyphenyl)-1-piperazinyl]-3-pyridinyl]-2H-imidazol-2-one] |
| 1 (≈ 0.549 µg/mL) | CC(C(O)c1ccc(Br)cc1)n1ccn(-c2ccc(N3CCN(c4ccc(O)cc4)CC3)cc2)c1=O (stereo not shown) [compound 9, [A]+[B]-1-[2-(4-bromophenyl)-2-hydroxy-1-methylethyl]-1,3-dihydro-3-[4-[4-(4-hydroxyphenyl)-1-piperazinyl]phenyl]-2H-imidazol-2-one] |
| 1 (≈ 0.519 µg/mL) | Cc1cn(C(C)C(O)c2ccc(Cl)cc2)c(=O)n1-c1ccc(N2CCN(c3ccc(O)cc3)CC2)cc1 (stereo not shown) [compound 11, 1-[2-(4-chlorophenyl)-2-hydroxy-1-methylethyl]-1,3-dihydro-3-[4-[4-(4-hydroxyphenyl)-1-piperazinyl]phenyl]-4-methyl-2H-imidazol-2-one] |
| 0.1 (≈ 0.0505 µg/mL) | CC(C(O)c1ccc(Cl)cc1)n1ccn(-c2ccc(N3CCN(c4ccc(O)cc4)CC3)cc2)c1=O (stereo not shown) [compound 12, 1-[2-(4-chlorophenyl)-2-hydroxy-1-methylethyl]-1,3-dihydro-3-[4-[4-(4-hydroxy-phenyl)-1-piperazinyl]phenyl]-2H-imidazol-2-one] |
| 1 (≈ 0.565 µg/mL) | Cc1nn(C(C)C(O)c2ccc(Br)cc2)c(=O)n1-c1ccc(N2CCN(c3ccc(O)cc3)CC2)nc1 (stereo not shown) [compound 23, 2-[2-(4-bromophenyl)-2-hydroxy-1-methylethyl]-2,4-dihydro-4-[6-[4-(4-hydroxy-phenyl)-1-piperazinyl]-3-pyridinyl]-5-methyl-3H-1,2,4-triazol-3-one] |
| 1 (≈ 0.486 µg/mL) | Cc1ccc(C(O)C(C)n2ncn(-c3ccc(N4CCN(c5ccc(O)cc5)CC4)cc3)c2=O)cc1 (stereo not shown) [compound 33, 2,4-dihydro-2-[2-hydroxy-1-methyl-2-(4-methylphenyl)ethyl]-4-[4-[4-(4-hydroxyphenyl)-1-piperazinyl]phenyl]-3H-1,2,4-triazol-3-one] |

Further lines, the compound ahead of its results:

| SMILES | MIC [µM] |
| --- | --- |
| CCC[C@H]([C@H](O)c1ccc(Cl)cc1)n1ncn(-c2ccc(N3CCN(c4cccc(OC)c4)CC3)nc2)c1=O (relative stereo) [compound 40, (±)-(R* ,R*)-2-[1-[(4-chlorophenyl)hydroxymethyl]butyl]-2,4-dihydro-4-[6-[4-(3-methoxyphenyl)-1-piperazinyl]-3-pyridinyl]-3H-1,2,4-triazol-3-one] | 0.1 (≈ 0.0549 µg/mL) |
| CC[C@H]([C@H](O)c1ccc(Cl)cc1)n1ncn(-c2ccc(N3CCN(c4ccc(OC)c(OC)c4)CC3)nc2)c1=O (relative stereo) [compound 49, (±)-(R*,R*)-2-[1-[(4-chlorophenyl)hydroxymethyl]propyl]-4-[6-[4-(3,4-dimethoxy-phenyl)-1-piperazinyl]-3-pyridinyl]-2,4-dihydro-3H-1,2,4-triazol-3-one] | 0.01 (≈ 0.00565 µg/mL) |
| Cc1cc(N2CCN(c3ccc(-n4c(C)nn([C@H](C)[C@H](O)c5ccc(Cl)cc5Cl)c4=O)cc3)CC2)cc(C)c1O (single isomer, unassigned) [compound 32, (+)-(R*,R*)-2-[2-(2,4-dichlorophenyl)-2-hydroxy-1-methylethyl]-2,4-dihydro-4-[4-[4-(4-hydroxy-3,5-dimethylphenyl)-1-piperazinyl]phenyl]-5-methyl-3H-1,2,4-triazol-3-one dihydrate] | 1 |
| CCC(C(=O)c1ccc(Cl)cc1)n1ncn(-c2ccc(N3CCN(c4ccc(OC)cc4)CC3)cc2)c1=O (single isomer, unassigned; (+)) [compound 31, (+)-(A)-2-[1-(4-chlorobenzoyl)propyl]-2,4-dihydro-4-[4-[4-(4-methoxyphenyl)-1-piperazinyl]phenyl]-3H-1,2,4-triazol-3-one] | 1 (≈ 0.532 µg/mL) |
| Cc1cn(C(C)C(=O)c2ccc(Cl)cc2)c(=O)n1-c1ccc(N2CCN(c3ccc(O)cc3)CC2)cc1 (stereo not shown) [compound 30, 1-[1-(4-chlorobenzoyl)ethyl]-1,3-dihydro-3-[4-[4-(4-hydroxyphenyl)-1-piperazinyl]phenyl]-4-methyl-2H-imidazol-2-one] | 1 (≈ 0.517 µg/mL) |
| COc1ccc(C(=O)C(C)n2ncn(-c3ccc(N4CCN(c5ccc(O)cc5)CC4)cc3)c2=O)cc1 (stereo not shown) [compound 35, 2,4-dihydro-4-[4-[4-(4-hydroxyphenyl)-1-piperazinyl]phenyl]-2-[1-(4-methoxy-benzoyl)ethyl]-3H-1,2,4-triazol-3-one] | 10 (≈ 5 µg/mL) |

Same assay, conditions: 48 h

| SMILES | MIC [µM] |
| --- | --- |
| CC(C(=O)c1ccc(Br)cc1)n1ncn(-c2ccc(N3CCN(c4ccc(O[Si](C)(C)C(C)(C)C)cc4)CC3)cc2)c1=O (stereo not shown) [compound 47, 2-[1-(4-bromobenzoyl)ethyl]-4-[4-[4-[4-[[(1,1-dimethylethyl)dimethylsilyl]oxy]phenyl]-1-piperazinyl]phenyl]-2,4-dihydro-3H-1,2,4-triazol-3-one] | 1 (≈ 0.663 µg/mL) |

From US5650411A, “Substituted azolone derivatives” (Janssen Pharmaceutica N.V., priority 1993, dated 1997)
